Reference: article PMC8041284, “Tunable Methacrylamides for Covalent Ligand Directed Release Chemistry” (Journal of the American Chemical Society, 2021)
Where a SMILES comes first, the peptide text is derived from it. The star is where a group is joined. Cbz = O=C(OCc1ccccc1)*

molecular target: BTK (Homo sapiens, UniProt Q06187); test: biochemical; conditions: read-out: BTK inhibition (%), 0.75 uM BTK, […] probe 3l, 15 min preincubation
Sequence (Q06187 402-655 limits assumed): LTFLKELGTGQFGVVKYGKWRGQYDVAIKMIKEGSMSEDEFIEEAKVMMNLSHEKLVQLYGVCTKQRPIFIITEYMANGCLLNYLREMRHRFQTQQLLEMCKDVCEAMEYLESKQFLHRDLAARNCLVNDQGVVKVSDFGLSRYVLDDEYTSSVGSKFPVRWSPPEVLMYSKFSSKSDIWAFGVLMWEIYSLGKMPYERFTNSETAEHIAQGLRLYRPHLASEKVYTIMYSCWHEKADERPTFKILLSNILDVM

inhibition at 10 µM [%]	Compound
0.8	O=C(O)c1cc2cccc([N+](=O)[O-])c2[nH]1 [PCM-0095778]
-7.6	C[C@@H]1COCCN1c1cc(C2(S(C)(=O)=O)CC2)nc(-c2cccc3[nH]ccc23)n1 [PCM-0095779]
9.3	CC1(C)C=C(CN2C/C(=C\c3ccc(F)cc3)C(=O)/C(=C/c3ccc(F)cc3)C2)C(C)(C)N1O [PCM-0095780]
-10.8	O=C(c1ccc(C(=O)N2CCC(N3CCCC3)CC2)c(Nc2ccccc2)c1)N1CCC(N2CCCC2)CC1 [PCM-0095781]
3.9	Cc1cnc(-c2ccccc2C(C)C)nc1NCc1ccc(-n2ccnn2)cc1 [PCM-0095782]
-19.3	Cc1ccccc1CN1C2=NCCN2C(=O)C2=C1CCN(Cc1ccccc1)C2 [PCM-0095783]
3.9	c1cc(-c2cnn3cc(-c4ccc(N5CCNCC5)cc4)cnc23)c2cccnc2c1 [PCM-0095784]
-6.8	Cn1cc(-c2cnn3c(N)c(Br)c([C@@H]4CCCNC4)nc23)cn1 [PCM-0095786]
90.3	C=CC(=O)Nc1cccc(Nc2nc(Nc3ccc(OCCOC)cc3)ncc2F)c1 [PCM-0095787]
-1.5	N[C@H]1C[C@@H]1c1ccc(-c2cccc(O)c2)cc1 [PCM-0095788]
0.8	Cc1cc(OCc2nnc(SC3CCCC3)n2-c2cccnc2)ccc1-c1ccc(S(C)(=O)=O)cc1 [PCM-0095789]
17	Cc1ccc(NCCCc2ccccc2)c(N)c1 [PCM-0095790]
5.4	O=C(c1cncc(Br)c1)N1CCC(N2CCCC2)CC1 [PCM-0095791]
-3.1	Nc1nonc1C(=Nc1ccc(F)c(Cl)c1)NO [PCM-0095795]
-2.6	CCN(c1cc(-c2ccc(CN3CCOCC3)cc2)cc(C(=O)NCc2c(C)cc(C)[nH]c2=O)c1C)C1CCOCC1 [PCM-0095796]
-13.9	C/C(=N\NC(=S)N1CCC1)c1ccccn1 [PCM-0095797]
27	O=C(Nc1cccc(C(F)(F)F)c1)Nc1cc(S(=O)(=O)NC2CC2)ccc1-c1ccsc1 [PCM-0095800]
59.5	Cc1cc(C)nc(NS(=O)(=O)c2ccc(NC(=S)NC(=O)COc3ccc(Br)cc3Cl)cc2)n1 [PCM-0095801]
52.5	C#CC[C@H](c1nc2cc(Cl)ccc2c(=O)n1Nc1ccccc1)N(CCCN)C(=O)c1cccc(Cl)c1F [PCM-0095802]
2.8	COc1ccccc1-c1cc(Nc2cccc(CS(N)(=O)=O)c2)ncn1 [PCM-0095804]
16.6	N#Cc1c(NC(=O)c2cccc3ccccc23)sc2c1CCCC2 [PCM-0095805]
64.9	CCOC(=O)c1ccc(N2NC(=O)/C(=C/c3ccc([N+](=O)[O-])o3)C2=O)cc1 [PCM-0095807]
-11.6	O=C(NNc1ccccc1)c1ccncc1 [PCM-0095808]
5.4	CC(C)C[C@@H](C=O)NC(=O)[C@H](CC(C)C)NC(=O)[C@H](CC(C)C)NC(=O)OCc1ccccc1 [PCM-0095809] (Cbz-Leu-Leu-Leu-aldehyde)
3.1	Nc1ncnc2c1C(=O)N(c1ccc(C3CCC(CC(=O)O)CC3)cc1)CCO2 (stereo not drawn) [PCM-0095810]
29.3	COc1cc(-c2cc(-c3cccc(O)c3)cnc2N)cc(OC)c1OC [PCM-0095813]

inhibition at 10 µM [%]	Compound
46.3	CC1=C(C(=O)OC2CCCCC2)C(c2ccc([N+](=O)[O-])cc2)C2=C(CC(C)(C)CC2=O)N1 (stereo not drawn) [PCM-0095815]
-1.5	NC(=S)N/N=C/c1ncccc1N [PCM-0095816]
27	O=S(=O)(c1ccccc1)N(CC(F)(F)F)c1ccc(C(O)(C(F)(F)F)C(F)(F)F)cc1 [PCM-0095817]
15.4	Cn1c(=O)cc(N2CCC[C@@H](N)C2)n(Cc2cc(F)ccc2C#N)c1=O [PCM-0095818]
72.4	Cc1nc(Nc2n[nH]c3c2CN(C(=O)N[C@H](CN(C)C)c2ccccc2)C3(C)C)c2sccc2n1 [PCM-0095819]
-15.4	O=C(O)CCn1c2c(c3ccccc31)C[C@H](NS(=O)(=O)c1ccc(F)cc1)CC2 [PCM-0101878]
42	Nc1ncnc2c1ncn2[C@@H]1O[C@H](CO)C[C@H]1O [PCM-0101885]
7	C/C(=C\C(=O)OCCCCCCCCC(=O)O)C[C@@H]1OC[C@H](C[C@@H]2O[C@H]2[C@@H](C)[C@H](C)O)[C@@H](O)[C@H]1O [PCM-0101899]
47.6	COc1ccc2c(c1)/C(=C/c1cnc[nH]1)C(=O)N2 [PCM-0101915]
15.4	Nc1ncnc2c1ncn2[C@H]1C[C@H](O)[C@@H](CO)O1 [PCM-0101923]
-10	OB1OCc2cc(F)ccc21 [PCM-0101990]
0	O=c1c2ccccc2nc(/C=C/c2cccnc2)n1Cc1ccccc1 [PCM-0102024]
40.9	O=C(Nc1ccc(Cl)cc1)C1CCCN(C(=O)c2cccc(-c3ccco3)c2)C1 (stereo not drawn) [PCM-0102067]
6.9	Cc1cc(Nc2cc(N)ncn2)c(=O)n2c1C(=O)NC21CCCCC1 [PCM-0203357]
0	CCOc1cc(C(=O)N2CCC(N3CCN(C)CC3)CC2)ccc1Nc1ncc2c(n1)N(C1CCCC1)c1ccccc1C(=O)N2C [PCM-0213331]
20.7	CCN1CCN(Cc2ccc(C(=O)Nc3ccc(C)c(Oc4ccc5c(c4)CC(=O)N5)c3)cc2C(F)(F)F)CC1 [PCM-0213332]
26.2	CC(C)(C)S(=O)(=O)c1ccc2nccc(Nc3n[nH]c4ccc(F)cc34)c2c1 [PCM-0213348]
-24.1	O=C(NCCO)c1cccc(-c2cc(Nc3ccc(OC(F)(F)F)cc3)ncn2)c1 [PCM-0213352]
17.9	CNCc1ccc(-c2cc(-c3nc(-c4ccc(S(=O)(=O)C(C)C)cc4)cnc3N)on2)cc1 [PCM-0213360]
11	COc1cc(N2CCN(C)CC2)ccc1Nc1ncc2c(n1)N(C)c1ccccc1C(=O)N2 [PCM-0213372]
30.3	Cc1nc(Nc2cnn(C3CCNCC3)c2)nc2c1N(C)C(=O)c1cc3ccccc3cc1N2C [PCM-0213384]
60	Cc1cnc(Nc2ccc(F)cc2Cl)nc1-c1c[nH]c(C(=O)N[C@H](CO)c2cccc(Cl)c2)c1 [PCM-0213398]
51.7	CC(C)N1CCN(Cc2cnc(-c3cc(-c4cccc5[nH]ccc45)cc4[nH]ncc34)o2)CC1 [PCM-0213407]
6.2	COc1ncc(-c2cc(-c3ncc(CN4C[C@@H](C)O[C@@H](C)C4)o3)c3cn[nH]c3c2)cc1NS(C)(=O)=O [PCM-0213408]
26.2	CC(C)S(=O)(=O)c1ccc2nccc(Nc3ccc4scnc4c3)c2c1 [PCM-0213432]
2.1	O=C(Nc1cccnc1)c1cc(-c2ccnc(F)c2)ccc1OCc1ccccc1 [PCM-0213433]

Compound	inhibition at 10 µM [%]
CCOc1ccccc1-n1c(C(C)N2CCN(C(=O)COc3ccc(Cl)cc3)CC2)nc2ccccc2c1=O (stereo not drawn) [PCM-0095811]	15.4
Cn1cc(-c2ccc3c(c2)CCN3C(=O)Cc2cccc(C(F)(F)F)c2)c2c(N)ncnc21 [PCM-0095812]	40
N[C@H]1C[C@@H]1c1ccccc1 [PCM-0095814]	-6.2
N#CSc1cc(SC#N)c(N)nc1N [PCM-0095820]	112
O=C(C[C@H]1NCCC[C@@H]1O)Cn1cnc2cc(Br)c(Cl)cc2c1=O [PCM-0102069]	0
